Consider 8 molecules from the supplement of paper PMC8967900.

Structures are written as SMILES.
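Further: ALL cell lines in 384-well plates, five doses spanning 10,000-fold, each plate scaled between vehicle and 100 µmol/L benzalkonium chloride controls, sDSS an adapted area-under-curve metric.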

One test deals with REH. Briefly: selective drug sensitivity score (sDSS, relative to normal bone marrow) (sDSS (score)); higher = more potent and effective on the cell line relative to normal bone marrow cells. The conditions noted are these: 72 h.
Take `C[C@@H](Oc1ccc2[nH]nc(/C=C/c3cnn(CCO)c3)c2c1)c1c(Cl)cncc1Cl` (top concentration 1000 nM): the “selective drug sensitivity score” value was -0.64.

As for `Cc1cc(C(C)Nc2ccccc2)c2nc(N3CCOCC3)cc(=O)n2c1` (stereo not given) [TGX-221] (top concentration 10000 nM), the “selective drug sensitivity score” value was -0.84.

As for `Cc1nc(-c2cn3c(n2)-c2ccc(-c4cnn(C(C)(C)C(N)=O)c4)cc2OCC3)n(C(C)C)n1` [Taselisib] (top concentration 1000 nM), the “selective drug sensitivity score” value worked out at 5.7.

As for `O=C(Nc1cccc(Nc2ncc(Br)c(NCCc3cnc[nH]3)n2)c1)N1CCCC1` [BX-912] (top concentration 10000 nM), the “selective drug sensitivity score” value was 7.96.

Consider `NS(=O)(=O)OC[C@@H]1C[C@@H](n2ccc3c(N[C@H]4CCc5ccccc54)ncnc32)C[C@@H]1O` [Pevonedistat] (top concentration 10000 nM), for which the “selective drug sensitivity score” value worked out at 10.3.

As for `N#Cc1ccc(COC[C@H]2O[C@@H](n3c(NCc4ccc(Cl)c(Cl)c4)nc4c(N)ncnc43)[C@H](O)[C@@H]2O)cc1` (top concentration 10000 nM), the “selective drug sensitivity score” value was 9.12.

Regarding `C=C1C[C@@H]2[C@H](CC[C@]3(C)C(=O)CC[C@@H]23)[C@@]2(C)C=CC(=O)C=C12` [Exemestane] (top concentration 10000 nM), the “selective drug sensitivity score” value was -1.9.

Regarding `NCC(=O)Nc1ccc(-n2nc(C(F)(F)F)cc2-c2ccc3c(ccc4ccccc43)c2)cc1` (top concentration 25000 nM), the “selective drug sensitivity score” value turned out to be 12.5.

The next test has as its system COG-LL-402h. Described as above. The settings on record: 72 h.
Regarding `C[C@@H](Oc1ccc2[nH]nc(/C=C/c3cnn(CCO)c3)c2c1)c1c(Cl)cncc1Cl` (top concentration 1000 nM), the “selective drug sensitivity score” value is -2.14.

With `Cc1cc(C(C)Nc2ccccc2)c2nc(N3CCOCC3)cc(=O)n2c1` (stereo not given) [TGX-221] (top concentration 10000 nM), the “selective drug sensitivity score” value turned out to be 1.76.

`Cc1nc(-c2cn3c(n2)-c2ccc(-c4cnn(C(C)(C)C(N)=O)c4)cc2OCC3)n(C(C)C)n1` [Taselisib] (top concentration 1000 nM): the “selective drug sensitivity score” value came out at 10.9.

Regarding `O=C(Nc1cccc(Nc2ncc(Br)c(NCCc3cnc[nH]3)n2)c1)N1CCCC1` [BX-912] (top concentration 10000 nM), the “selective drug sensitivity score” value worked out at 6.16.

As for `NS(=O)(=O)OC[C@@H]1C[C@@H](n2ccc3c(N[C@H]4CCc5ccccc54)ncnc32)C[C@@H]1O` [Pevonedistat] (top concentration 10000 nM), the “selective drug sensitivity score” value is 8.5.

Regarding `N#Cc1ccc(COC[C@H]2O[C@@H](n3c(NCc4ccc(Cl)c(Cl)c4)nc4c(N)ncnc43)[C@H](O)[C@@H]2O)cc1` (top concentration 10000 nM), the “selective drug sensitivity score” value is 2.02.

As for `C=C1C[C@@H]2[C@H](CC[C@]3(C)C(=O)CC[C@@H]23)[C@@]2(C)C=CC(=O)C=C12` [Exemestane] (top concentration 10000 nM), the “selective drug sensitivity score” value was 2.2.

As for `NCC(=O)Nc1ccc(-n2nc(C(F)(F)F)cc2-c2ccc3c(ccc4ccccc43)c2)cc1` (top concentration 25000 nM), the “selective drug sensitivity score” value is -0.2.

The test system of the next test is COG-LL-317. Described as above. The conditions noted are these: 72 h.
On to `C[C@@H](Oc1ccc2[nH]nc(/C=C/c3cnn(CCO)c3)c2c1)c1c(Cl)cncc1Cl` (top concentration 1000 nM), for which the “selective drug sensitivity score” value was -2.74.

Turning to `Cc1cc(C(C)Nc2ccccc2)c2nc(N3CCOCC3)cc(=O)n2c1` (stereo not given) [TGX-221] (top concentration 10000 nM), the “selective drug sensitivity score” value was -1.64.

Take `Cc1nc(-c2cn3c(n2)-c2ccc(-c4cnn(C(C)(C)C(N)=O)c4)cc2OCC3)n(C(C)C)n1` [Taselisib] (top concentration 1000 nM): the “selective drug sensitivity score” value was 0.8.

Consider `O=C(Nc1cccc(Nc2ncc(Br)c(NCCc3cnc[nH]3)n2)c1)N1CCCC1` [BX-912] (top concentration 10000 nM), for which the “selective drug sensitivity score” value stood at 9.46.

As to `NS(=O)(=O)OC[C@@H]1C[C@@H](n2ccc3c(N[C@H]4CCc5ccccc54)ncnc32)C[C@@H]1O` [Pevonedistat] (top concentration 10000 nM), the “selective drug sensitivity score” value worked out at 15.7.

On to `N#Cc1ccc(COC[C@H]2O[C@@H](n3c(NCc4ccc(Cl)c(Cl)c4)nc4c(N)ncnc43)[C@H](O)[C@@H]2O)cc1` (top concentration 10000 nM), for which the “selective drug sensitivity score” value turned out to be 6.22.

Consider `C=C1C[C@@H]2[C@H](CC[C@]3(C)C(=O)CC[C@@H]23)[C@@]2(C)C=CC(=O)C=C12` [Exemestane] (top concentration 10000 nM), for which the “selective drug sensitivity score” value was determined as 0.

On to `NCC(=O)Nc1ccc(-n2nc(C(F)(F)F)cc2-c2ccc3c(ccc4ccccc43)c2)cc1` (top concentration 25000 nM), for which the “selective drug sensitivity score” value stood at 11.3.

Another test relates to SEM cells. Described as above. The settings on record: 72 h.
Take `C[C@@H](Oc1ccc2[nH]nc(/C=C/c3cnn(CCO)c3)c2c1)c1c(Cl)cncc1Cl` (top concentration 1000 nM): the “selective drug sensitivity score” value was determined as 6.26.

With `Cc1cc(C(C)Nc2ccccc2)c2nc(N3CCOCC3)cc(=O)n2c1` (stereo not given) [TGX-221] (top concentration 10000 nM), the “selective drug sensitivity score” value was determined as 5.46.

For `Cc1nc(-c2cn3c(n2)-c2ccc(-c4cnn(C(C)(C)C(N)=O)c4)cc2OCC3)n(C(C)C)n1` [Taselisib] (top concentration 1000 nM), the “selective drug sensitivity score” value worked out at 5.2.

As to `O=C(Nc1cccc(Nc2ncc(Br)c(NCCc3cnc[nH]3)n2)c1)N1CCCC1` [BX-912] (top concentration 10000 nM), the “selective drug sensitivity score” value worked out at 13.4.

Consider `NS(=O)(=O)OC[C@@H]1C[C@@H](n2ccc3c(N[C@H]4CCc5ccccc54)ncnc32)C[C@@H]1O` [Pevonedistat] (top concentration 10000 nM), for which the “selective drug sensitivity score” value came to 9.9.

For `N#Cc1ccc(COC[C@H]2O[C@@H](n3c(NCc4ccc(Cl)c(Cl)c4)nc4c(N)ncnc43)[C@H](O)[C@@H]2O)cc1` (top concentration 10000 nM), the “selective drug sensitivity score” value was 5.22.

Regarding `C=C1C[C@@H]2[C@H](CC[C@]3(C)C(=O)CC[C@@H]23)[C@@]2(C)C=CC(=O)C=C12` [Exemestane] (top concentration 10000 nM), the “selective drug sensitivity score” value is -1.9.

`NCC(=O)Nc1ccc(-n2nc(C(F)(F)F)cc2-c2ccc3c(ccc4ccccc43)c2)cc1` (top concentration 25000 nM): the “selective drug sensitivity score” value was found to be 8.

A further test has as its system NALM-6. The description is as above. The settings on record: 72 h.
On to `C[C@@H](Oc1ccc2[nH]nc(/C=C/c3cnn(CCO)c3)c2c1)c1c(Cl)cncc1Cl` (top concentration 1000 nM), for which the “selective drug sensitivity score” value was 7.16.

Turning to `Cc1cc(C(C)Nc2ccccc2)c2nc(N3CCOCC3)cc(=O)n2c1` (stereo not given) [TGX-221] (top concentration 10000 nM), the “selective drug sensitivity score” value is 3.56.

`Cc1nc(-c2cn3c(n2)-c2ccc(-c4cnn(C(C)(C)C(N)=O)c4)cc2OCC3)n(C(C)C)n1` [Taselisib] (top concentration 1000 nM): the “selective drug sensitivity score” value was found to be 9.5.

As for `O=C(Nc1cccc(Nc2ncc(Br)c(NCCc3cnc[nH]3)n2)c1)N1CCCC1` [BX-912] (top concentration 10000 nM), the “selective drug sensitivity score” value stood at 6.46.

As to `NS(=O)(=O)OC[C@@H]1C[C@@H](n2ccc3c(N[C@H]4CCc5ccccc54)ncnc32)C[C@@H]1O` [Pevonedistat] (top concentration 10000 nM), the “selective drug sensitivity score” value stood at 12.1.

`N#Cc1ccc(COC[C@H]2O[C@@H](n3c(NCc4ccc(Cl)c(Cl)c4)nc4c(N)ncnc43)[C@H](O)[C@@H]2O)cc1` (top concentration 10000 nM): the “selective drug sensitivity score” value amounted to 5.92.

`C=C1C[C@@H]2[C@H](CC[C@]3(C)C(=O)CC[C@@H]23)[C@@]2(C)C=CC(=O)C=C12` [Exemestane] (top concentration 10000 nM): the “selective drug sensitivity score” value was found to be 1.5.

For `NCC(=O)Nc1ccc(-n2nc(C(F)(F)F)cc2-c2ccc3c(ccc4ccccc43)c2)cc1` (top concentration 25000 nM), the “selective drug sensitivity score” value was found to be 13.3.
